A short description of data set [1]: Permeability across apical to basolateral side in human Caco2 cells. It is filed as ADME, cell-based. The note with it: Caco-2, read-out: permeability. (In general: Caco-2 cells form a polarised layer with tight junctions and transporters.)
The nature of data set [2]: Intrinsic clearance in mouse liver microsomes. It is filed as ADME, microsome. The conditions noted are these: read-out: CLH.
Data set [3] in a line: Intrinsic clearance in human liver microsomes. The note with it: read-out: CLH. Format: ADME, microsome.
A short description of data set [4]: Solubility of the compound in pH 7 solution. It is filed as physicochemical.
The nature of data set [5]: Solubility of the compound in pH 6.8 solution. Format: physicochemical.
Data set [6] can be described thus: Solubility of the compound in pH 7.4 solution. It is filed as physicochemical.
Data set [7] is described as follows: Intrinsic clearance in rat liver microsomes. The conditions noted are these: read-out: CLH. It is filed as ADME, microsome. A general note: Liver microsomes are vesicles of endoplasmic reticulum, rich in cytochrome P450 enzymes.
A short description of data set [8]: Clearance in Sprague-Dawley rat at 5 mg/kg, iv administered as single dose by LC-MS/MS analysis. Format: ADME, organism-based. The conditions noted are these: in vivo.
Data set [9] in a line: Volume of distribution at steady state in Sprague-Dawley rat at 5 mg/kg, iv administered as single dose by LC-MS/MS analysis. It is filed as ADME, organism-based. The conditions noted are these: in vivo, read-out: Vdss.
Data set [10] is described as follows: Tmax in Sprague-Dawley rat at 10 mg/kg, po administered as single dose by LC-MS/MS analysis. The conditions noted are these: in vivo. Format: ADME, organism-based.
The nature of data set [11]: Cmax in Sprague-Dawley rat at 10 mg/kg, po administered as single dose by LC-MS/MS analysis. Format: ADME, organism-based. Details: dose 10 mg/kg, route oral. The note with it: in vivo.
Data set [12] can be described thus: Oral bioavailability in Sprague-Dawley rat at 10 mg/kg administered as single dose by LC-MS/MS analysis. Format: ADME, organism-based. The conditions noted are these: in vivo.
A short description of data set [13]: AUC (0 to infinity) in Sprague-Dawley rat at 10 mg/kg, po administered as single dose by LC-MS/MS analysis. Format: ADME, organism-based. Details: dose 10 mg/kg, time infinity, route oral. The conditions noted are these: in vivo.
A short description of data set [14]: Half life in Sprague-Dawley rat at 5 mg/kg, iv administered as single dose by LC-MS/MS analysis. It is filed as ADME, organism-based. The note with it: in vivo.

A word on the solubility: it is how much of the substance goes into solution per volume. High values mean much dissolved substance, low ones little dissolved substance. In the case of `Cn1c(-c2cc3c(s2)CNCC3)nc2c(C(N)=O)cc(F)cc21`, the Papp A→B in data set [1] is 2.65 ×10⁻⁶ cm/s. In addition, the microsomal CLint in data set [2] stood at 75 µL/min/mg; in data set [3], 28 µL/min/mg; in data set [7] it was 196 µL/min/mg. Further, the solubility in [4], in data set [5] and in data set [6] was greater than 50 µM in each case.

In the case of `NC(=O)c1cc(F)cc2[nH]c(-c3cc4c(s3)CNCC4)nc12`, the Papp A→B in data set [1] is 0.2 ×10⁻⁶ cm/s. The microsomal CLint was found to be 123 µL/min/mg in [2], 23 µL/min/mg in data set [3] and 340 µL/min/mg in data set [7]. The solubility in data set [4], in data set [5] and in data set [6] was greater than 50 µM throughout.

What is called clearance is the rate of elimination divided by the concentration. Read a low clearance as a low capacity for elimination. The term Tmax denotes the time from dosing to the highest level. In general, Cmax refers to the maximum level reached in the sampled fluid or tissue. As usually defined, the bioavailability is the share of a dose that reaches the circulation, judged against a reference dose that is usually intravenous. A low value points to little systemic uptake. Usually AUC(0-inf) stands for the area under the concentration-time curve extrapolated to infinity. The half-life is the time needed for the level to fall by half in the phase considered. Read a high half-life as slow decline. Turning to `Cl.Cn1c(-c2cc3c(s2)CNCC3)nc2c(C(N)=O)cc(F)cc21`, the clearance in data set [8] was 194 mL/min/kg. Besides, the Vd in data set [9] was determined as 13.2 L/kg. Also, the Tmax in data set [10] was determined as 2.25 h. The molecule further showed a maximum concentration (Cmax) in data set [11] of 61.2 ng/mL. Besides, the bioavailability in [12] is 26%. In data set [13], this molecule showed an AUC(0-inf) of 245 ng·h/mL. The half-life in data set [14] was 0.89 h.

The values are drawn from ChEMBL document CHEMBL4251650, “Design and synthesis of 2-(4,5,6,7-tetrahydrothienopyridin-2-yl)-benzoimidazole carboxamides as novel orally efficacious Poly(ADP-ribose)polymerase (PARP) inhibitors” (Eur J Med Chem, 2018).
